Three molecules from paper PMC4434572, “Identification of novel drugs to target dormant micrometastases” (BMC Cancer, 2015) can be followed below.

The structures appear in SMILES notation. Read-outs that look alike come from different tables or passages of the source.

For one test, the system named is MDA-MB-435 cells. Description: Proliferation (CFDA-AM esterase assay) of cells grown on SISgel, plastic or Matrigel, 48 h drug exposure. It counts as cell-based. As to conditions: for SI (EC50-P/EC50-S): ratio of EC50 on plastic versus SISgel. From the text: The libraries were obtained from the NCI (Diversity Library I) comprised of 2,918 compounds and a 10,000 compound diversity library from ChemBridge, Inc. (DiverSet-EXP). The NCI library is no longer available in the form used here, but how it was constructed is described (http://dtp.nci.nih.gov/branches/dscb/diversity_explanation.html). The ChemBridge library is a subset (Set Code NM1024) of the full 50,000 compound library (http://www.chembridge.com/screening_libraries/diversity_libraries/). Compounds were diluted to 100 μM before use. SISgel was prepared as described previously from powdered porcine small intestine submucosa obtained from Cook Biotech (W. Lafayette, IN). It is a natural product that is used extensively in tissue engineering as a bioscaffold. J82 bladder cancer cells and other cell lines were obtained from the ATCC (Bethesda, MD). The basic principle is that cells grown on any ECM are, in general, expected to show higher resistance to anticancer compounds than when grown on plastic. Therefore, compounds that show a higher activity toward cancer cells on a normal ECM than on a plastic surface would be candidates to target suppressed, micrometastatic cells. Efficacy in vitro was assessed by plating 30,000 cells in 50 μL of high glucose DMEM with penicillin-streptomycin and 10 % fetal calf serum on SISgel in a 96-well plate containing 50 μL of gelled SISgel per well. Cells were allowed to attach and assume the SISgel phenotype for 48 h. A matching plate without SISgel was prepared 24 h later by pipetting 3,000 cells in 100 μL of high glucose DMEM with penicillin-streptomycin and 10 % fetal calf serum into each well of 96 well plate. The cells were allowed to attach and grow for 24 h. These numbers of cells gave approximately equal replication rates at the time drug was added for cells grown on the plastic surface or SISgel as determined by the fraction of S-phase cells identified by flow cytometry. The cells were exposed to drug in fresh medium for 48 h, at which time the cell number was determined using the CFDA-AM cellular esterase proliferation assay (cat. #C1354, Life Technologies). For screening the results are reported as the ratio of cell count of cells on the plastic surface to the cell count on SISgel. An initial difference of 1.5 fold identified potential hits. All potential hits were confirmed in triplicate. Those compounds that replicated were confirmed by a full dose–response study yielding an EC50 using five wells per drug concentration. Data were analyzed using nonlinear regression to a sigmoid curve with Prism 4 (GraphPad Software, Inc., LaJolla, CA). Potential hits that were confirmed by dose–response using J82 were also tested with MDA-MB-435 breast cancer, PC-3 metastatic prostate cancer, Capan1 pancreatic cancer and the J82 bladder cancer cell lines.

For another test, the system named is 4T1 Luc2-GFP cells. Description: Orthotopic 4T1 syngeneic model of triple-negative breast cancer with natural lung metastasis. In kind it is in vivo, BALB/c mice. To be noted: for number of large multicellular micrometastases and vascularized macrometastases to the lung: i.p. or osmotic pump. The method, then: 4T1 Luc2-GFP cells (PerkinElmer, Waltham, MA) were cultured in DMEM high glucose media with 2 mM pyruvate, 2 mM glutamine, 2 % Pen/Strep and 10 % Cosmic Calf Serum (Mediatech, Manassas, VA). To prepare cells for injection they were removed from flasks, counted using the TC10 counting system (BioRad, Hercules, CA) and checked for viability. Cells were then washed with PBS, pelleted and taken up at a concentration of 75,000 cells/ml; 100 μl of cell suspension (7,500 cells) was injected subcutaneously (bevel side up) into mammary fat pad #4 of 8 weeks old female BALB/c mice (NCI National Laboratory Frederick/Charles River animal production program). All animals were weighed and tumors were measured using calipers three times weekly. Beginning one week after implantation, which is when micrometastatic cells begin to arrive in the lungs, animals were treated three times per week with intraperitoneal DT310 or DT320 at their NOAEL dose of 75 mg/kg three times week dissolved in saline or by osmotic pump. The osmotic pumps (Alzet #2004) delivered an NOAEL dose of 23.4 and 26.7 μg/h of DT310 and DT320, respectively, for 4 weeks and were implanted as directed subcutaneously posterior to scapulae. Docetaxel was delivered once weekly intraperitoneally at its MTD of 15 mg/kg and doxorubicin delivered once weekly at its MTD of 1 mg/kg in 5 % N-Methyl-2-pyrrolidone, 5 % Solutol HS, and 90 % saline. GFP positive cells were imaged with excitation of GFP emission using a Leica Model Z16 APO fluorescence microscope equipped for a wide field, a large depth of field and 0.57–9.2X zoom capability. GFP-positive objects were counted and scored as to whether they were […], clumps of less than ten cells without a visible vasculature, as determined by co-injection of tetramethylrhodamine labeled dextran (2 million MW).

Another test concerns 4T1 parental cells. Nature of the test: EC50 on parental 4T1 cell line grown on plastic surface. It counts as cell-based, mouse. The method, then: Because cancer stem cells are highly resistant to conventional chemotherapy and are thought to initiate tumors, the activity of the DT series of drugs was also checked against cancer stem cells obtained from the 4T1 line. […] For comparison the EC50 values of DT310, DT320, and doxorubicin were determined in 4T1 parental cells plated on plastic. Because this assay targeting stem cells was performed in suspension culture, we also tested whether SISgel differentiated the stem cells. As indicated by the presence of pluripotency markers (Nanog, Sox2, Oct4), the cells retained their pluripotency markers on SISgel (Fig. 5). […] The 4T1 stem cells could not be tested on Matrigel or on plastic because they differentiate and are therefore no longer stem cells. 4T1 cancer stem cells were much more sensitive to the DT agents, particularly to DT320, than to conventional chemotherapeutic drugs.

Setting [1] is: MDA-MB-435 cells on SISgel, read-out: EC50-S.
Setting [2] is: MDA-MB-435 cells on plastic, read-out: EC50-P.
[3] abbreviates: i.p. injection or osmotic pump, vs untreated.

For `O=S(=O)([O-])c1ccc2c(N=Nc3cccc4ccccc34)c(O)c(S(=O)(=O)[O-])cc2c1.[Na+].[Na+]` [DT310, 4-(1-naphthalenylhydrazinylidene) -3-oxonaphthalene-2,7-disulfonic acid], the EC50 amounted to 35.9 µM in the test with MDA-MB-435 cells (setting [1]), 86.5 µM with MDA-MB-435 cells (setting [2]) and 14.4 µM in the test with 4T1 parental cells (plastic surface). Moreover, in the test on MDA-MB-435 cells, the “SI (EC50-P/EC50-S)” value was 2.4. Further, in the test with 4T1 Luc2-GFP cells (setting [3]), the primary tumor growth result is reported as “significant reduction”. The “number of large multicellular micrometastases and vascularized macrometastases to the lung” value with 4T1 Luc2-GFP cells is “most sharply”. In the test with 4T1 Luc2-GFP cells (osmotic pump administration), the “number of single micrometastatic cells and small micrometastases in lung” value is recorded as “significant effect”.
Regarding `O=S(=O)([O-])c1cc(O)c2c(O)c(N=Nc3cccc4ccccc34)c(S(=O)(=O)[O-])cc2c1.[Na+].[Na+]` [DT320, 4,5-Dihydroxy-3-(1-naphthalenylazo)-2,7-naphthalenedisulfonic acid disodium salt], the EC50 is 8.7 µM with MDA-MB-435 cells (setting [1]), 78 µM in the test on MDA-MB-435 cells (setting [2]) and 19.7 µM in the test with 4T1 parental cells (plastic surface). For the same molecule, the Ratio in the test on MDA-MB-435 cells (Matrigel/SISgel EC50, MDA-MB-435) was 2.4. In addition, the “SI (EC50-P/EC50-S)” value in the test on MDA-MB-435 cells was 9.0. The primary tumor growth result in the test with 4T1 Luc2-GFP cells (setting [3]) is reported as “significant reduction”.
As to `COc1cccc2c1C(=O)c1c(O)c3c(c(O)c1C2=O)C[C@@](O)(C(=O)CO)C[C@@H]3O[C@H]1C[C@H](N)[C@H](O)[C@H](C)O1` [Doxorubicin, reference compound], the 50% effective concentration (EC50) in the test with MDA-MB-435 cells (Homo sapiens, MDA-MB-435 cells on SISgel, read-out: EC50-S) is 45.4 µM; in the test on MDA-MB-435 cells (Homo sapiens, MDA-MB-435 cells on plastic, read-out: EC50-P), 47.8 µM; with 4T1 parental cells (Mus musculus, 4T1), 4.7 µM. For the same molecule, the “SI (EC50-P/EC50-S)” value with MDA-MB-435 cells stood at 1.05. For the same molecule, the primary tumor growth result with 4T1 Luc2-GFP cells (administered i.p. at MTD) is given as “small effect”. Moreover, the “number of large multicellular micrometastases and vascularized macrometastases to the lung” value in the test on 4T1 Luc2-GFP cells was “only minimal effects”.

By EC50 is commonly meant the concentration needed to bring the measured effect to its halfway point.
